# Literature values, collected in US12702690B2, “Cannabinoid compositions and dosage forms for intranasal or inhalational delivery” (RHODES TECHNOLOGIES, priority 2020, dated 2026).
# Experiments:
# [1] = following ingestion; Sharma et al. 2012
# [2] = background statement
structure (smiles),measurement,setting,value
"CCCCCc1cc(O)c2c(c1)OC(C)(C)C1CCC(C)=CC21 (single isomer, unassigned; (-)) [Dronabinol, (−)-trans-Δ^9-tetrahydrocannabinol]",time at which systemic absorption peaks,[1],1 to 2 h
same,solubility in water,[2],insoluble in water
